Key:
Assay in all cases: Broth dilution antifungal susceptibility testing, MIC
Format in all cases: cell-based
Fusarium spp. = Fusarium spp. strain DM 2006 1133
Experimental: (§1) Broth Dilution Antifungal Susceptibility Testing
(§2) The sensitivity of relevant fungal strains to the peptides was determined using Clinical Laboratory Standard Institute (CLSI; formerly NCCLS) Approved Standards. Fungal susceptibility was tested using “Reference Method for Broth Dilution Antifungal Susceptibility Testing of Filamentous Fungi; Approved Standard M38-P”, and yeast susceptibility was tested using “Reference Method for Broth Dilution Antifungal Susceptibility Testing of Yeasts; Approved Standard—Second Edition M27-A”.

Alternaria spp. = Alternaria spp. strain DM 2006 1218a
Experimental: as §1, §2

Fusarium solani = Fusarium solani strain NCPF2877
Experimental: as §1, §2

Penicillium spp. = Penicillium spp. strain DM 2006 1285b
Experimental: as §1, §2

[1] = test system: Scopulariopsis brevicaulis; settings: Scopulariopsis brevicaulis strain DM 2006 1025
Experimental: as §1, §2

## Poly-L-Lysine (MW 10-20 kDa) [NP108]
Fusarium spp.
  MIC: 125 (μg/ml)
Alternaria spp.
  MIC: 62.5 (μg/ml)
Fusarium solani
  MIC: 256 (μg/ml)
Penicillium spp.
  MIC: 31.2 (μg/ml)
[1]
  MIC: 3.9 (μg/ml)

## Poly-L-Arginine (MW 5-15 kDa) [NP121]
Fusarium spp.
  MIC: 156 (μg/ml)
Alternaria spp.
  MIC: 13.2 (μg/ml)
Fusarium solani
  MIC: 7.8 (μg/ml)
Penicillium spp.
  MIC: 15.6 (μg/ml)
[1]
  MIC: 3.9 (μg/ml)
